Results taken from patent publication US20200131669A1, “CYCLIC PEPTIDE COMPOUND HAVING HIGH MEMBRANE PERMEABILITY, AND LIBRARY CONTAINING SAME” (Chugai Seiyaku Kabushiki Kaisha, priority 2017, published 2020).
Positions of bridges follow the written chain, without caps; N, C: chain ends. Non-standard residues stand in square brackets, D forms with d. Residues, ends and D or L forms follow the SMILES beside them. ξ: configuration not given here. *: point of attachment. Glu(NHSO2Me) = CS(=O)(=O)NC(=O)CC[C@H](N)C(=O)O; NMePhe(3-Cl) = CN[C@@H](Cc1cccc(Cl)c1)C(=O)O; NMeF = CN[C@@H](Cc1ccccc1)C(=O)O; ξThr(3R) = C[C@@H](O)C(N)C(=O)O; NMeL = CN[C@@H](CC(C)C)C(=O)O; NMeV = CN[C@H](C(=O)O)C(C)C; NMeAbu = CC[C@H](NC)C(=O)O; NMeA = CN[C@@H](C)C(=O)O; Piperidide = C1CCN(*)CC1; Me2NCH2CH2 = CN(C)CC*; NBuGly = CCCCNCC(=O)O; Isopentyl = CC(C)CC*; NPrGly = CCCNCC(=O)O; ξS = NC(CO)C(=O)O; Sar = CNCC(=O)O

Test: Caco-2 membrane permeability, improved method as used in the following Examples (96-well, 20 to 24 h preincubation)
Assay type: in vitro ADME
Conditions: human, Caco-2, Caco-2
Method: In the following Examples, membrane permeability was measured in accordance with the improved method established as described above. Specifically, Caco-2 cells were cultured on a 96-well Transwell for three weeks, after which DMEM+FaSSIF (1% DMSO)+compound were added to the apical side and DMEM was added to the basal side, and the cells were preincubated at 5% CO2, 37° C., and 80 rpm for 20 to 24 hours. Following the preincubation, measurement of membrane permeability was initiated by removing the preincubation solution on the apical and basal sides by suction, washing the membrane, and adding FaSSIF/HBSS buffer (1% DMSO) (pH 6.0) containing the compound to the apical side and HBSS buffer (4% BSA) (pH 7.4) to the basal side. Each well was shaken at 5% CO2, 37° C., and 80 rpm, and 180 minutes after the initiation, the sample on the basal side was collected and the permeation amount was measured by LC/MS. The membrane permeability coefficient (Papp) was calculated from the permeation amount. Herein, the terms “Caco-2 (cm/sec)” in the columns in the tables and “Papp (cm/sec)” are used in the same meaning.

SMILES	Papp A→B at 180 min [×10⁻⁶ cm/s]
CCCN1CC(=O)N(C)[C@@H](C(C)C)C(=O)N[C@H](C(=O)N2CCCCC2)CC(=O)N(C)[C@@H](C)C(=O)N[C@@H](CC(C)C)C(=O)N(C)[C@@H](CC(C)C)C(=O)N(C)[C@@H](Cc2ccccc2)C(=O)NC(COCCN(C)C)C(=O)N(C)[C@@H](Cc2ccccc2)C(=O)N(C)[C@@H](CC(C)C)C(=O)N[C@@H]([C@@H](C)O)C1=O (stereo partly drawn) [pd57] ([NMeA]L[NMeL][NMeF][ξS](Me2NCH2CH2)[NMeF][NMeL]T[NPrGly][NMeV]D-Piperidide; lactam N-11)	0.12
CCCCN1CC(=O)N(C)[C@@H](Cc2ccccc2)C(=O)N[C@@H](COCCN(C)C)C(=O)N(C)[C@@H](CC(C)C)C(=O)N[C@@H]([C@@H](C)O)C(=O)N(C)CC(=O)N(C)[C@@H](Cc2ccccc2)C(=O)N(C)[C@@H](CC)C(=O)N[C@@H](COCCC(C)C)C(=O)N(C)[C@@H](CC(C)C)C(=O)N[C@H](C(=O)N2CCCCC2)CC1=O [pd58] ([NBuGly][NMeF]S(Me2NCH2CH2)[NMeL]T[Sar][NMeF][NMeAbu]S(Isopentyl)[NMeL]D-Piperidide; lactam N-11)	0.021
CCCCN1CC(=O)N(C)[C@@H](CC(C)C)C(=O)N[C@@H](CC(C)C)C(=O)N(C)[C@@H](Cc2ccccc2)C(=O)N(C)[C@@H](C(C)C)C(=O)N[C@H](C(=O)N2CCCCC2)CC(=O)N[C@H](CC(C)C)C(=O)N(C)[C@@H](Cc2cccc(Cl)c2)C(=O)N[C@@H](CCC(=O)NS(C)(=O)=O)C(=O)N(C)[C@@H](CC(C)C)C(=O)NC([C@@H](C)O)C1=O (stereo partly drawn) [pd59] ([dL][NMePhe(3-Cl)][Glu(NHSO2Me)][NMeL][ξThr(3R)][NBuGly][NMeL]L[NMeF][NMeV]D-Piperidide; lactam N-11)	< 0.0088
CCCCN1CC(=O)N(C)[C@@H](CC(C)C)C(=O)N[C@@H](CCC(=O)NS(C)(=O)=O)C(=O)N(C)[C@@H](Cc2cccc(Cl)c2)C(=O)N(C)[C@@H](C(C)C)C(=O)N[C@H](C(=O)N2CCCCC2)CC(=O)N[C@H](CC(C)C)C(=O)N(C)[C@@H](Cc2cccc(Cl)c2)C(=O)N[C@@H](CC(C)C)C(=O)N(C)[C@@H](CC(C)C)C(=O)N[C@@H]([C@@H](C)O)C1=O [pd60] ([dL][NMePhe(3-Cl)]L[NMeL]T[NBuGly][NMeL][Glu(NHSO2Me)][NMePhe(3-Cl)][NMeV]D-Piperidide; lactam N-11)	0.01
CCCCN1CC(=O)N(C)[C@@H](CC(C)C)C(=O)N[C@@H](CCC(=O)NS(C)(=O)=O)C(=O)N(C)[C@@H](Cc2cccc(Cl)c2)C(=O)N(C)[C@@H](C(C)C)C(=O)N[C@H](C(=O)N2CCCCC2)CC(=O)N[C@H](CC(C)C)C(=O)N(C)[C@@H](Cc2cccc(Cl)c2)C(=O)N[C@@H](CC(C)C)C(=O)N(C)[C@@H](CC)C(=O)N[C@@H]([C@@H](C)O)C1=O [pd61] ([dL][NMePhe(3-Cl)]L[NMeAbu]T[NBuGly][NMeL][Glu(NHSO2Me)][NMePhe(3-Cl)][NMeV]D-Piperidide; lactam N-11)	< 0.094
CCCCN1CC(=O)N(C)[C@@H](C(C)C)C(=O)N[C@H](C(=O)N2CCCCC2)CC(=O)N(C)[C@@H](CC(C)C)C(=O)N[C@@H](CCC(=O)NS(C)(=O)=O)C(=O)N(C)[C@@H](CC(C)C)C(=O)N(C)[C@@H](Cc2ccccc2)C(=O)N[C@@H](CC(C)C)C(=O)N(C)[C@@H](Cc2ccccc2)C(=O)N(C)[C@@H](CC(C)C)C(=O)N[C@@H]([C@@H](C)O)C1=O [pd62] ([NMeL][Glu(NHSO2Me)][NMeL][NMeF]L[NMeF][NMeL]T[NBuGly][NMeV]D-Piperidide; lactam N-11)	< 0.13
CCCCN1CC(=O)N(C)[C@@H](C(C)C)C(=O)N[C@H](C(=O)N2CCCCC2)CC(=O)N(C)[C@@H](CC)C(=O)N[C@@H](CCC(=O)NS(C)(=O)=O)C(=O)N(C)[C@@H](CC(C)C)C(=O)N(C)[C@@H](Cc2cccc(Cl)c2)C(=O)N[C@@H](CC(C)C)C(=O)N(C)[C@@H](Cc2ccccc2)C(=O)N(C)[C@@H](CC(C)C)C(=O)N[C@@H]([C@@H](C)O)C1=O [pd63] ([NMeAbu][Glu(NHSO2Me)][NMeL][NMePhe(3-Cl)]L[NMeF][NMeL]T[NBuGly][NMeV]D-Piperidide; lactam N-11)	< 0.1
CCCCN1CC(=O)N(C)[C@@H](CC(C)C)C(=O)N[C@H](C(=O)N2CCCCC2)CC(=O)N(C)[C@@H](CC(C)C)C(=O)N[C@@H](CC(C)C)C(=O)N(C)[C@@H](CC)C(=O)N(C)[C@@H](Cc2ccccc2)C(=O)N[C@@H](CCC(=O)NS(C)(=O)=O)C(=O)N(C)[C@@H](Cc2cccc(Cl)c2)C(=O)N(C)[C@@H](CC(C)C)C(=O)NC([C@@H](C)O)C1=O (stereo partly drawn) [pd64] ([NMeL]L[NMeAbu][NMeF][Glu(NHSO2Me)][NMePhe(3-Cl)][NMeL][ξThr(3R)][NBuGly][NMeL]D-Piperidide; lactam N-11)	0.15
